System: Serum RLP-C
Assay: 12-week placebo-controlled study (ANCHOR), serum RLP-C by immunoseparation assay, statin-treated patients with fasting TG ≥200 and <500 mg/dl
Assay type: in vivo, human
Conditions: for Median Change from Baseline in RLP-C vs. Placebo: Hodges-Lehmann estimate; for Median Change from Baseline in RLP-C vs. Placebo / RLP-C Concentration End of Treatment: week 12; for RLP-C Concentration Change: median change from baseline to week 12; for RLP-C Concentration Baseline / RLP-C Concentration End of Treatment: median; for RLP-C Concentration Baseline: before treatment
Description: A multi-center, placebo-controlled, randomized, double-blind, 12-week study was performed to evaluate the efficacy and safety of >96% E-EPA in patients with fasting triglyceride levels≥200 mg/dl and <500 mg/dl despite statin therapy (the mean of two qualifying entry values needed to be ≥185 mg/dl and at least one of the values needed to be ≥200 mg/dl). The primary objective of the study was to determine the efficacy of >96%, by weight of all fatty acids present, ethyl-EPA (“AMR101”) 2 g daily and 4 g daily, compared to placebo, in lowering fasting TG levels in patients with high risk for cardiovascular disease and with fasting TG levels≥200 mg/dl and <500 mg/dl, despite treatment to LDL-C goal on statin therapy. The population for this study was men and women>18 years of age with a body mass index≤45 kg/m^2 with fasting TG levels greater than or equal to 200 mg/dl and less than 500 mg/dl and on a stable does of statin therapy (with or without ezetimibe). The statin was atorvostatin, rosuvastatin or simvastatin. The dose of statin must have been stable for ≥4 weeks prior to the LDL-C/TG baseline qualifying measurement for randomization. The statin dose was optimized such that the patients are at their LDL-C goal at the LDL-C/TG baseline qualifying measurements. The same statin at the same dose was continued until the study ended. Approximately 702 patients were randomized at approximately 80 centers in the U.S. The study was a 18- to 20-week, Phase 3, multi-center study consisting of 2 study periods: (1) A 6- to 8-week screening period that included a diet and lifestyle stabilization, a non-statin lipid-altering treatment washout, and an LDL-C and TG qualifying period and (2) A 12-week, double-blind, randomized, placebo-controlled treatment period. After confirmation of qualifying fasting LDL-C and TG values, eligible patients entered a 12-week, randomized, double-blind treatment period. At Visit 4 (Week 0), patients were randomly assigned to 1 of the following treatment groups: • >96% E-EPA 2 g daily, • >96% E-EPA 4 g daily, or • Placebo. >96% E-EPA was provided in 1 g liquid-filled, oblong, gelatin capsules. The matching placebo capsule was filled with light liquid paraffin and contained 0 g of >96% E-EPA. >96% E-EPA capsules were to be taken with food (i.e. with or at the end of a meal). During the double-blind treatment period, patients were to take 2 capsules (>96% E-EPA or matching placebo) in the morning and 2 capsules in the evening for a total of 4 capsules per day. • Patients in the >96% E-EPA 2 g/day treatment group received 1 >96% E-EPA 1 g capsule and 1 matching placebo capsule in the morning and in the evening. • Patients in the >96% E-EPA 4 g/day treatment group received 2 >96% E-EPA 1 g capsules in the morning and evening. The primary efficacy variable for the double-blind treatment period was percent change in TG from baseline to Week 12 endpoint. […]

[1] = 2 g/day, Baseline TG <259 mg/dl
[2] = 2 g/day, Baseline TG ≥259 mg/dl
[3] = 2 g/day, Lower Statin Intensity
[4] = 2 g/day, Medium and Higher Statin Intensity
[5] = 4 g/day, Baseline TG <259 mg/dl
[6] = 4 g/day, Baseline TG ≥259 mg/dl
[7] = 4 g/day, Lower Statin Intensity
[8] = 4 g/day, Medium and Higher Statin Intensity

## CC/C=C\C/C=C\C/C=C\C/C=C\C/C=C\CCCC(=O)OCC [AMR101, ethyl-EPA]
2 g/day treatment group, 12 weeks
  RLP-C compared to placebo: reduced RLP-C compared to placebo
[1]
  Median Change from Baseline in RLP-C vs. Placebo: −16.4%
  RLP-C Concentration Change: −8.1%
  RLP-C Concentration Baseline: 11.5 mg/dL
  RLP-C Concentration End of Treatment: 11.0 mg/dL
[2]
  Median Change from Baseline in RLP-C vs. Placebo: −18.0%
  RLP-C Concentration Change: −17.4%
  RLP-C Concentration Baseline: 18.0 mg/dL
  RLP-C Concentration End of Treatment: 13.5 mg/dL
2 g/day, ITT
  Median Change from Baseline in RLP-C vs. Placebo: −16.7%
  RLP-C Concentration Change: −11.1%
  RLP-C Concentration Baseline: 15.0 mg/dL
  RLP-C Concentration End of Treatment: 11.0 mg/dL
[3]
  Median Change from Baseline in RLP-C vs. Placebo: 2.7%
  RLP-C Concentration Change: −11.1%
  RLP-C Concentration Baseline: 15.0 mg/dL
  RLP-C Concentration End of Treatment: 11.0 mg/dL
[4]
  Median Change from Baseline in RLP-C vs. Placebo: −17.3%
  RLP-C Concentration Change: −11.1%
  RLP-C Concentration Baseline: 15.0 mg/dL
  RLP-C Concentration End of Treatment: 11.0 mg/dL
4 g/day treatment group, 12 weeks, p=0.0001, stated as reduction
  median placebo-adjusted reduction in RLP-C: 25.8%
4 g/day treatment group, 12 weeks, stated as reduction
  reductions in RLP-C compared to baseline: 24.0%
[5]
  Median Change from Baseline in RLP-C vs. Placebo: −22.2%
  RLP-C Concentration Change: −16.0%
  RLP-C Concentration Baseline: 11.0 mg/dL
  RLP-C Concentration End of Treatment: 9.0 mg/dL
[6]
  Median Change from Baseline in RLP-C vs. Placebo: −30.6%
  RLP-C Concentration Change: −31.3%
  RLP-C Concentration Baseline: 17.0 mg/dL
  RLP-C Concentration End of Treatment: 11.0 mg/dL
4 g/day, ITT
  Median Change from Baseline in RLP-C vs. Placebo: −25.8%
  RLP-C Concentration Change: −24.0%
  RLP-C Concentration Baseline: 13.5 mg/dL
  RLP-C Concentration End of Treatment: 10.0 mg/dL
[7]
  Median Change from Baseline in RLP-C vs. Placebo: −11.9%
  RLP-C Concentration Change: −29.2%
  RLP-C Concentration Baseline: 16.0 mg/dL
  RLP-C Concentration End of Treatment: 15.0 mg/dL
[8]
  Median Change from Baseline in RLP-C vs. Placebo: −26.7%
  RLP-C Concentration Change: −23.1%
  RLP-C Concentration Baseline: 13.0 mg/dL
  RLP-C Concentration End of Treatment: 10.0 mg/dL
Subjects on moderate- to high-intensity statin therapy compared to lower-intensity statin therapy
  RLP-C reductions by statin intensity: greater RLP-C reductions
